Results reported in article PMC10900215 (JACS Au, 2024).
Entries after “also recorded” stand apart in the source; their conditions may differ.

Tests used:
[1] = target: T1, METTL3-14 (Homo sapiens, UniProt Q86U44); assay: Protein methyltransferases selectivity profile; format: biochemical
From the text: (§1) Remaining activity [%][a]
(§2) Methyltransferase Control IC50 (M) Control […]
(§3) concerning the buffer solution containing DMSO. The closer to 100% these values are, the weaker the […]
(§4) Table S2. Hook curve amplitudes derived from the TR-FRET ternary complex formation assay with all compounds in the paper. n = number of independent measurements (biological replicates).
(§5) Compound amplitude n Compound amplitude n […]

[2] = target: SETD2 (Homo sapiens, UniProt Q9BYW2); assay: Protein methyltransferases selectivity profile; format: biochemical; conditions: control compound
From the text: as §1, §2, §3, §4, §5

[3] = target: SMYD3 (Homo sapiens, UniProt Q9H7B4); assay: Protein methyltransferases selectivity profile; format: biochemical; conditions: control compound
From the text: as §1, §2, §3, §4, §5

[4] = target: His-GST-METTL3^MTD-METTL14^MTD (human) (UniProt Q86U44)
Chain of His-GST-METTL3^MTD-METTL14^MTD (human) (Q86U44 354-580, chain 1 of 2): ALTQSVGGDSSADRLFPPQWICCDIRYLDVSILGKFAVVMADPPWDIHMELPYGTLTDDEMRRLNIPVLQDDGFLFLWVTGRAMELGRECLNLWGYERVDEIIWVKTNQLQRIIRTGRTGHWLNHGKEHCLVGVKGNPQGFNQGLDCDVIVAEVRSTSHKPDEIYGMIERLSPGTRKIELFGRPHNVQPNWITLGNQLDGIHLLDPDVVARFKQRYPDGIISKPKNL
Chain of His-GST-METTL3^MTD-METTL14^MTD (human) (chain, as listed by the source, chain 2 of 2): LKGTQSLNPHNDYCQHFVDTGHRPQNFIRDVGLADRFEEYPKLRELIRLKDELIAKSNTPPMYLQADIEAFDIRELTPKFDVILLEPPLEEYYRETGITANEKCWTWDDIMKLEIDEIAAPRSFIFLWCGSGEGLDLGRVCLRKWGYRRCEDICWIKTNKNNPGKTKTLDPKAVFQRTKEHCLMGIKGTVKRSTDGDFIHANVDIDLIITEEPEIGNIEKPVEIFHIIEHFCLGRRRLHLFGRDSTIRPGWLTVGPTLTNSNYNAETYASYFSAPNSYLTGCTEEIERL

[5] = target: PRDM9 (Homo sapiens, UniProt Q9NQV7); assay: Protein methyltransferases selectivity profile; format: biochemical; conditions: control compound
From the text: as §1, §2, §3, §4, §5

[6] = target: T2, METTL3 (Homo sapiens, UniProt Q86U44); assay: Cellular degradation assay (Western blot), METTL3 in MOLM-13; format: cell-based
T2 construct: METTL3–14 degradation up to 70% of the endogenous level; endogenous in cells; host or cells: MOLM-13, PC3, DU145
T2 sequence (Q86U44 2-580 limits assumed): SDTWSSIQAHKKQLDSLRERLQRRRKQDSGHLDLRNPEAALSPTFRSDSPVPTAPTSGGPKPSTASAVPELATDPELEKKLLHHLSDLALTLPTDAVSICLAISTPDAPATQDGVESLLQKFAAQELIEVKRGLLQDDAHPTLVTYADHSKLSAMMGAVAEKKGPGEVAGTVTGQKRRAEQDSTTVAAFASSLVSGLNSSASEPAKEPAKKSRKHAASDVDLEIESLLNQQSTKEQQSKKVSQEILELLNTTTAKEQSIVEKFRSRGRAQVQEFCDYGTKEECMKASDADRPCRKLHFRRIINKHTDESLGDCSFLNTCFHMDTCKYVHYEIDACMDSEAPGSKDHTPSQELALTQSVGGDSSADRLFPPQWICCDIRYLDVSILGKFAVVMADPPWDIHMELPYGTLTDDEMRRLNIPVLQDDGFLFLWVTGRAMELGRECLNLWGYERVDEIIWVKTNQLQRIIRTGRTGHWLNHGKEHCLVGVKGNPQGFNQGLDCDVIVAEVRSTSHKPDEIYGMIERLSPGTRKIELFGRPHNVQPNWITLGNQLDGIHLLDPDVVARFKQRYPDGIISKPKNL
T2 sequence (Q9HCE5 whole entry partner): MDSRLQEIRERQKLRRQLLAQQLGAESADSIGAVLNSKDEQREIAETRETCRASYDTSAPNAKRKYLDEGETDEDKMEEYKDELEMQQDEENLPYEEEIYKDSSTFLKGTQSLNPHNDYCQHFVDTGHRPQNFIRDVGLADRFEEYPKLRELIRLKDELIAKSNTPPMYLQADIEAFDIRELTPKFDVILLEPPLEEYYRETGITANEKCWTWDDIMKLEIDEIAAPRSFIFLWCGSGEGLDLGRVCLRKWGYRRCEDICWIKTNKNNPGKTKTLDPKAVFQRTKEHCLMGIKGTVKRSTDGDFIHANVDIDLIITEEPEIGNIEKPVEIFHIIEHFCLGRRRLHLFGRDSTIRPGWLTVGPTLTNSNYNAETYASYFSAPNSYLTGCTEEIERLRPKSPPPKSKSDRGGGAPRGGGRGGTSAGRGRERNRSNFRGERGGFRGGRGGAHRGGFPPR
Summary of the method: (§6)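 Densitometric Western blot quantification of METTL3 and METTL14 protein gave the degradation read-out. Before lysis, cells had been incubated with PROTACs at the indicated concentrations for 24h at 37 °C, alongside a 0.1% DMSO vehicle.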

[7] = target: T2, METTL3; assay: Cellular thermal shift assay (CETSA) in MOLM-13, METTL3; format: cell-based; conditions: MOLM-13, 54 °C
Description: One million of MOLM-13 cells were suspended in 100 μL of PBS (10010023, Thermo Fisher Scientific) containing 2× protease inhibitor cocktail (11697498001, Roche), for each condition tested. Cells were incubated with compounds or DMSO control (1% (v/v)) for 1 h at 37 °C. They were then heat treated at 54 °C in a thermoblock for 3 min, followed by cooling to room temperature (3 min). Next, samples were lysed by threefreeze–thaw cycles in liquid nitrogen and centrifuge at 16000 g for 30 min, 4 °C. Equal volumes of control and tested samples (12 μL) were analyzed by Western blot. The changes in the amount of METTL3 protein (after normalization for β-actin and/or GAPDH) were monitored by performing densitometry in Image Studio Lite software and analyzed in GraphPad Prism 9.

[8] = target: T3, Cereblon (CRBN) (Homo sapiens, UniProt Q96SW2); assay: Cellular thermal shift assay (CETSA) in MOLM-13, Cereblon; format: cell-based; conditions: MOLM-13, 54 °C
T3 construct: endogenous in cells; host or cells: MOLM-13
T3 sequence (Q96SW2 whole entry): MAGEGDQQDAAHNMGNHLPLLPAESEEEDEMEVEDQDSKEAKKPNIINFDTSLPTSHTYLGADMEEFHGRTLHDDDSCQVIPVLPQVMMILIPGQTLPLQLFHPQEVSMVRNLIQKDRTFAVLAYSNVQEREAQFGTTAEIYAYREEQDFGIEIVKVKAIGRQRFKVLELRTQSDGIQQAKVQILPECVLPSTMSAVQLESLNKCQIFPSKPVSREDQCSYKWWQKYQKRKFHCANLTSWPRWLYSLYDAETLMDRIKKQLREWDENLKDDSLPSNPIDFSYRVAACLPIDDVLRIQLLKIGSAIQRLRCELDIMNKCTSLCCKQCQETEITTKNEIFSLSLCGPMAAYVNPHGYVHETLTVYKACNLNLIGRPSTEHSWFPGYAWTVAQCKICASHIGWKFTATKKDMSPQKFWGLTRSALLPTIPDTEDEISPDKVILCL

[9] = target: T4, METTL3 (Homo sapiens, UniProt Q86U44+Q96SW2); assay: In vitro ubiquitination assay, METTL3; format: biochemical; conditions: 2, 8, and 32 μM, 30 °C, 2 h
T4 construct: Human full-length METTL3-METTL14 was expressed and purified as described above; Human full-length cereblon-DDB1 and 6xHis-CUL4A-6xHis-RBX1 were coexpressed; StrepII (N); GFP (N); TEV site (N); made in house; host or cells: baculovirus/Sf9 insect cells (METTL3-METTL14, cereblon-DDB1, CUL4A-RBX1)
T4 sequence (Q86U44 whole entry): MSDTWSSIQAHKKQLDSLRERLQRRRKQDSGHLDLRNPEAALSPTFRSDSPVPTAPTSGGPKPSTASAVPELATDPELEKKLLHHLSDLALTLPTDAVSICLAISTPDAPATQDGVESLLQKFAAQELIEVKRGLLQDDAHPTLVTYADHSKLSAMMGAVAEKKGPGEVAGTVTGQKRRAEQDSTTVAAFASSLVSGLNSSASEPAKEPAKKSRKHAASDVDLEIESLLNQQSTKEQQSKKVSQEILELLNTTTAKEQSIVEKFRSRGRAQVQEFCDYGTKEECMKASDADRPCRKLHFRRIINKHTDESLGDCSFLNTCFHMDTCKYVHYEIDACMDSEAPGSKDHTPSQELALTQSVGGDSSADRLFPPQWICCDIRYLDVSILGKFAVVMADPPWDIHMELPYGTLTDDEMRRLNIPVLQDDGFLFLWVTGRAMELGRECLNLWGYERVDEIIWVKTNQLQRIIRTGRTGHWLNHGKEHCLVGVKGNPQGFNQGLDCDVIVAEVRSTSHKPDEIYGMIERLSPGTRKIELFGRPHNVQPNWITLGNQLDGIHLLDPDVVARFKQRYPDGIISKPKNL
T4 sequence (Q9HCE5 whole entry partner): as the sequence (Q9HCE5 whole entry partner) above
T4 sequence (Q96SW2 whole entry): as the sequence (Q96SW2 whole entry) above
T4 sequence (Q16531 whole entry partner): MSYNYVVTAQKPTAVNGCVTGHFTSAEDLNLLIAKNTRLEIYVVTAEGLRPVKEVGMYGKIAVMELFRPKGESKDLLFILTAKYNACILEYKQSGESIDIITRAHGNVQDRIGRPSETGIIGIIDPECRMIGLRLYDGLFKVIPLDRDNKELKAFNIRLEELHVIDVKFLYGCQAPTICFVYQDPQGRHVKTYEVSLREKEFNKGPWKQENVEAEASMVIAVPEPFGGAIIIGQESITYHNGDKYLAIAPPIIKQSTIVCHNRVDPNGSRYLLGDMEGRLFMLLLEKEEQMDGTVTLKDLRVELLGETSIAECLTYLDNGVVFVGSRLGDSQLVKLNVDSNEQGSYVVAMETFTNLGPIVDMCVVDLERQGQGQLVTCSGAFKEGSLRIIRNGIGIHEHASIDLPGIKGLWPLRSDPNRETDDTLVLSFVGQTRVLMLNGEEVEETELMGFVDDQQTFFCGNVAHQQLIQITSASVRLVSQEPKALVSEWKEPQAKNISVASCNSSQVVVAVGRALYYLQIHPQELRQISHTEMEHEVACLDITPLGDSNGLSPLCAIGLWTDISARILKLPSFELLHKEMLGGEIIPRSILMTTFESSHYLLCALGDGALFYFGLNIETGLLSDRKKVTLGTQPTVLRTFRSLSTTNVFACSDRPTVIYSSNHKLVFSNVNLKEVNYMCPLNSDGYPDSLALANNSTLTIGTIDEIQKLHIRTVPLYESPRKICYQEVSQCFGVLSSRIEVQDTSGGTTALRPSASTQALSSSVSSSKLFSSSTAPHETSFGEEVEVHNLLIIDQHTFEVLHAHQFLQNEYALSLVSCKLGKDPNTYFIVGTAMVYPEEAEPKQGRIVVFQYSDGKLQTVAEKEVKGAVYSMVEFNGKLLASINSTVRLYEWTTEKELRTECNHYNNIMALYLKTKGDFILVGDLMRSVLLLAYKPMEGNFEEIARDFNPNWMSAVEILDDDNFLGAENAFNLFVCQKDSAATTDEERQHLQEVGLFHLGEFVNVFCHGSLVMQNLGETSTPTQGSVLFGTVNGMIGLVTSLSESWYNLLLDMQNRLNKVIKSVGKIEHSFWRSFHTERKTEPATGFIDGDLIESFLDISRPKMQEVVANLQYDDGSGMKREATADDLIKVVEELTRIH
T4 sequence (Q13619 whole entry partner): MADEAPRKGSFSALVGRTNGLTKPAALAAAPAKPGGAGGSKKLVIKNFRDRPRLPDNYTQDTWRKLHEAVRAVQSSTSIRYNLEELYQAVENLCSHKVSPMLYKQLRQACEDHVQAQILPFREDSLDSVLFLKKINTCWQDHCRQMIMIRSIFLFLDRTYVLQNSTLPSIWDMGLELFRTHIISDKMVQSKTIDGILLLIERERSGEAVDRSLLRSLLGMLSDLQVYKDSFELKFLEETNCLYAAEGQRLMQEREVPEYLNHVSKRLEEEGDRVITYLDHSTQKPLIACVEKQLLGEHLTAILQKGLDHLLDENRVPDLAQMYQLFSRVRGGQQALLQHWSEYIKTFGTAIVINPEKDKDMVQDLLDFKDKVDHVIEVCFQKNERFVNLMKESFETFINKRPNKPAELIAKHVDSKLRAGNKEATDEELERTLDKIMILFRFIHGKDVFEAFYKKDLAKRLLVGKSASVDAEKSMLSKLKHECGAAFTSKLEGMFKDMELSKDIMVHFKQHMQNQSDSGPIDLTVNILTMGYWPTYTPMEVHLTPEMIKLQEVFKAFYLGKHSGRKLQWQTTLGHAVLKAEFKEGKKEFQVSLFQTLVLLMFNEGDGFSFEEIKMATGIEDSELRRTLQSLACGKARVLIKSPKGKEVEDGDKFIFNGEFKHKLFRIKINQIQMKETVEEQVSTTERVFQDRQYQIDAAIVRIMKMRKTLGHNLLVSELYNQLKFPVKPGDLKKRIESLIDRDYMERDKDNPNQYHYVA
T4 sequence (P62877 whole entry partner): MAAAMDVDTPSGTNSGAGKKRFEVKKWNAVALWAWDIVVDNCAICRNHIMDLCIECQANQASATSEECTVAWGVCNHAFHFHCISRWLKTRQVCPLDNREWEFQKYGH
Description: For the cell-free in vitro ubiquitination of METTL3-METTL14 purified E1, E2, ubiquitin, CUL4A-RBX1, Cereblon-DDB1, and METTL3-METTL14 were used. Human full-length METTL3-METTL14 was expressed and purified as described above. […] Purified recombinant human UBE1 E1 (E-305–025) was purchased from R&D Systems, UbcH5a E2 (23–029) from Merck and ubiquitin (SBB-UP0013) from South Bay Bio. For the ubiquitination reaction, components were mixed to final concentrations of 0.06 μM UBE1, 1.96 μM UbcH5a, 39 μM ubiquitin, 0.33 μM CUL4A-RBX1, 0.33 μM Cereblon-DDB1, 0.5 μM METTL3-METTL14, and different concentrations of compound 14 or me-14 (0, 2, 8, or 32 μM) in reaction buffer (50 mM Tris-HCl pH 7.6, 5 mM MgCl2, 0.2 mM CaCl2, 1 mM DTT, 100 mM NaCl, 0.01% BSA, 0.01% Triton X-100). The final reaction volume was 15 μL. After the addition of 2 mM ATP (or the equal volume of water for the control without ATP), the reaction mixture was incubated for 2 h at 30 °C. […] The signals were quantified by using the Image Studio Lite software. To determine the percentage of ubiquitinated METTL3, the fraction of unmodified METTL3 was calculated by dividing the signal of the band assigned to unmodified METTL3 by the signal of the area containing both the unmodified and (poly)ubiquitinated METTL3 and normalizing to the control without ATP. […]

[10] = target: T1, METTL3-14; assay: Cellular degradation assay (Western blot), METTL3 and/or METTL14 (METTL3–14) in MOLM-13; format: cell-based; parameters: METTL3–14 degradation up to 70% of the endogenous level; endogenous in cells; host or cells: MOLM-13, KASUMI-1, THP-1, NOMO-1; conditions: for degradation of METTL3 and/or METTL14: MOLM-13, 2 μM, 24 h, Western blot
Description: MOLM-13, NOMO-1, THP-1, Kasumi-1, PC3, and DU145 cell lines were obtained from DSMZ-German Collection of Microorganisms and Cell Cultures GmbH. […] All cell lines were tested negative for mycoplasma contamination (PCR-based assay by Microsynth, Switzerland).
METTL3 (and METTL14) protein degradation was monitored by Western blot. Cells were treated with the indicated concentration of PROTACs or DMSO control (0.1% (v/v)) for 24h, 37 °C with 5% CO2. […] After SDS-PAGE, proteins were transferred to a nitrocellulose membrane, blocked (with 5% milk, 0.5% BSA in TBST buffer), and incubated overnight with primary antibodies. […] Densitometry was performed in Image Studio Lite software and analyzed in GraphPad Prism 9.
Target sequence in this assay (Q86U44 2-580 limits assumed): as the sequence (Q86U44 2-580 limits assumed) above
Target sequence in this assay (Q9HCE5 whole entry partner): as the sequence (Q9HCE5 whole entry partner) above

[11] = target: T5, ternary complex CRBN/PROTAC/METTL3–14 (Homo sapiens, UniProt Q86U44+Q96SW2); assay: FRET-based ternary complex formation assay (TCFA); format: binding
T5 construct: methyltransferase domains (MTD) of METTL3 (residues 354–580); His6 (N, cleaved yes); made in house; host or cells: METTL3-MTD/METTL14-MTD: baculovirus/Sf9; CRBN-TBD: E. coli Rosetta (DE3), co-expressed with BirA
T5 sequence (Q86U44 354-580): as the sequence (Q86U44 354-580, chain 1 of 2) above
T5 sequence (Q9HCE5 107-395 partner limits assumed): as the sequence (chain, as listed by the source, chain 2 of 2) above
T5 sequence (Q96SW2 318-442): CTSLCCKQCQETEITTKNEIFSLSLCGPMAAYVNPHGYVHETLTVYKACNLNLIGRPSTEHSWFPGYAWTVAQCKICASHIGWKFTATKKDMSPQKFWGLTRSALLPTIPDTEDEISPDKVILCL
Summary of the method: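 HTRF/TR-FRET measurement of PROTAC-induced complex between GST-tagged METTL3–14 and biotinylated CRBN^TBD-Avi (10 nM final) with 0.8 nM Eu^3+ anti-GST antibody, in 50 mM HEPES pH 7.5, 150 mM NaCl, 0.1% BSA, 100 mM KF. Emission ratio used; ECmax and Hook-curve amplitude taken from Gaussian fit or highest-signal data point.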

[12] = tested on: PC3 cell line; assay: Cell viability assay (CellTiter-Glo) on PC3; format: cell-based, human
Description: MOLM-13, NOMO-1, THP-1, Kasumi-1, PC3, and DU145 cell lines were obtained from DSMZ-German Collection of Microorganisms and Cell Cultures GmbH. Cells were cultured in RPMI 1640 medium (11875093, Thermo Fisher Scientific) containing 10% FBS (16140071, Thermo Fisher Scientific) and 1% penicillin-streptomycin (15140122, Thermo Fisher Scientific) in 5% CO2 at 37 °C in a humidified incubator, with maintained cell densities at 0.5–1 × 10^6 cells/mL. All cell lines were tested negative for mycoplasma contamination (PCR-based assay by Microsynth, Switzerland).
Cells were seeded in white clear-bottom 96-well plates at a density of 6–20 × 10^3 cells/well in 50 μL of the complete RPMI medium and treated with 50 μL of increasing concentrations of the indicated compounds dissolved in DMSO (final concentration of compounds 0.01–10 μM) or DMSO only as a negative control (0.01% (v/v)) and incubated for 72 h at 37 °C with 5% CO2. Cell viability was determined using a CellTiter-Glo luminescent cell viability assay (Promega) based on the detection of ATP according to the manufacturer’s instructions. 100 μL of the reagent was added to each well and incubated for 10 min at room temperature. The luminescence was recorded using a Tecan Infinite […] M1000 microplate reader from the top. Background luminescence value was obtained from wells containing the CellTiter-Glo reagent and medium without cells. The resulting data was analyzed in GraphPad Prism 9.

[13] = tested on: METTL14; assay: Cellular degradation assay (Western blot), METTL14 in MOLM-13; format: cell-based, human; conditions: MOLM-13, 24 h, 2 μM compound
Summary of the method: as §6

[14] = Cell viability assay (CellTiter-Glo) on MOLM-13; format: cell-based; conditions: human, MOLM-13 cells, average of two biological replicates
Summary of the method: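 MOLM-13 AML cells grown in RPMI 1640 with 10% FBS at 37 °C, 5% CO2. Viability read as ATP luminescence by CellTiter-Glo after 10 min at room temperature, with background from cell-free medium wells subtracted.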

With `Nc1ncnc2c1ncn2[C@@H]1O[C@H](CSCC[C@H](N)C(=O)O)[C@@H](O)[C@H]1O` [SAH, S-(5’-adenosyl)-L-homocysteine] the IC50 [1] was 153 nM, the IC50 [2] was 1380 nM and the IC50 [3] was 8480 nM.

“CRBN^TBD-Avi(biotin) (from UniProt Q96SW2 318-442) (domain or fragment)” showed a degradation of METTL3 and METTL14 in MOLM-13 cells (Western blot) with PROTAC 30 at five concentrations; Hook effect [4] of 60% and a degradation of METTL3 in MOLM-13 cells (Western blot) with PROTAC 14 at five concentrations; Hook effect [4] of 50%.

Work on `CN1C(=O)[C@@]23C[C@]4([C@]56C[C@@]78SS[C@@](CO)(C(=O)N7[C@H]5Nc5ccccc56)N(C)C8=O)c5ccccc5N[C@@H]4N2C(=O)[C@]1(CO)SS3` [Chaetocin] yielded an IC50 [5] of 905 nM.

In the case of `CN1C(=O)CCC(N2C(=O)c3cccc(NCCCC(=O)NCc4cccc(CNc5cc(N6CCC7(CC6)CN(c6cc(F)c(CN8CCC(C)(C)CC8)cc6F)CC(=O)N7)ncn5)c4)c3C2=O)C1=O` (stereo not shown) [me-14], the METTL3 levels ([6]; MOLM-13, 10 μM) is reported as “increased METTL3 levels”, the “stabilization of METTL3 (CETSA)” value [7] is reported as “stabilize METTL3 in a concentration-dependent manner; also recorded: stabilization of METTL3” and the “stabilization of Cereblon (CETSA)” value [8] is reported as “not of CRBN”. For the same molecule, the “ubiquitination of METTL3 compared to the control without compound” value [9] was “does not increase”, the “degradation of METTL3 and/or METTL14” value [10] was “did not show any METTL3–14 degradation” and the “degradation of METTL3 and METTL14, concentration dependence” value ([10]; MOLM-13, five concentrations) was “no degradation”.

In the case of `CNc1cc(N2CCC3(CC2)CN(c2cc(F)c(CN4CCC(C)(C)CC4)cc2F)CC(=O)N3)ncn1` [UZH2, reference compound], the “activity / signal in the ternary complex formation assay” value [11] is reported as “no activity”, the antiproliferative effect [12] is reported as “not” and the “METTL3–14 levels” value ([10]; MOLM-13, 10 μM UZH2 control without PROTAC) is reported as “elevated levels of METTL3–14”.

In the case of `CC1(C)CCN(Cc2cc(F)c(N3CC(=O)NC4(CCN(c5cc(NCCN6CCN(c7cccc8c7C(=O)N(C7CCC(=O)NC7=O)C8=O)CC6)ncn5)CC4)C3)cc2F)CC1` (stereo not shown) [Compound 32], the “MOLM-13 West. blot at 24h 2 μM comp conc. Degradation (%) of METTL3” value ([6]; MOLM-13, 24 h, 2 μM compound) is reported as “/ (Degradation <10% or stabilization)”, the “MOLM-13 West. blot at 24h 2 μM comp conc. Degradation (%) of METTL14” value [13] is reported as “/ (Degradation <10% or stabilization)” and the “activity / signal in the ternary complex formation assay” value [11] is reported as “inactive”. For the same molecule, the “ECmax (nM) ± SD” value ([11]; PROTAC concentration at the maximum of the signal in the TCFA) was “– ^b”, the viability at 72 h, 0.6 µM ([14]; 0.6 µM) was 106% and the viability at 72 h, 1.25 µM ([14]; 1.25 µM) was 106%. For the same molecule, the viability at 72 h, […] ([14]; 2.5 µM) was 103%, the viability at 72 h, 5 µM ([14]; 5 µM) was 91.5% and the viability at 72 h, 10 µM ([14]; 10 µM) was 74.6%. The “degradation of METTL3 and/or METTL14” value [10] was “inactive”.
